# Test results taken from patent US11173192B2 (priority 2016, dated 2021).
# Where no end group is shown, it is not given here.
# B1: EPRS (aa 1-196): N-terminal EPRS fragment containing GST-like domain and linker region L1 (protein)
# chain: MATLSLTVNSGDPPLGALLAVEHVKDDVSISVEEGKENILHVSENVIFTDVNSILRYLARVATTAGLYGSNLMEHTEIDHWLEFSATKLSSCDSFTSTINELNHCLSLRTYLVGNSLSLADLCVWATLKGNAAWQEQLKQKKAPVHVKRWFGFLEAQQAFQSVGTKWDVSTTKARVAPEKKQDVGKFVELPGAEMG
# Assays:
# MAVS [1] = details: 293T cells expressing EPRS, PCBP2, ITCH, Ub; MG-132
# MAVS [2] = details: PCBP2-transfected 293T cells, various concentrations of EPRS
# Description: For immunoblotting analysis, cells were lysed with RIPA buffer (20 mM Tris-HCl, pH 7.4, 150 mM NaCl, 1% NP-40, and 1 mM EDTA) containing a protease inhibitor cocktail and a phosphatase inhibitor cocktail (Roche). Whole cell lysates (50 μg to 100 μg) were subjected to SDS-PAGE, followed by immunoblotting with respective antibodies.
# [3] = target: T1, binding of PCBP2 to ITCH E3 ligase (Homo sapiens, UniProt Q15366); assay: GST precipitation of the PCBP2-ITCH interaction in the presence of EPRS; assay type: cell-based
# T1 construct: FLAG-, Strep-, His-, or GST-tagged full-length and truncated PCBP2 were also prepared; expressed in transfected cells
# [4] = target: T2, interaction between PCBP2 and MAVS (Homo sapiens, UniProt Q15366); assay: GST precipitation of the PCBP2-MAVS interaction in 293T cells with various amounts of EPRS; assay type: cell-based; details: 293T cells transfected with MAVS and PCBP2, various amounts of EPRS
# T2 construct: FLAG-, Strep-, His-, or GST-tagged full-length and truncated PCBP2 were also prepared; expressed in transfected cells; host or cells: 293T
# VSV = assay type: cell-based, vesicular stomatitis virus (VSV)
# VSV-Indiana = tested on: VSV-Indiana; parameters: species or system mice; details: in vivo, iv
# [5] = tested on: VSV-infected RAW264.7 cells; assay type: cell-based
# 293T cells = assay: MTS cytotoxicity assay, 293T cells; assay type: cell-based; details: 12 or 24 hours
# Description: (§1) HEK293T or RAW264.7 cells were seeded in 96-well plates (10,000 per well) before treatment with Tat-Epep (20-200 μM) for 0-24 hours. Cytotoxicity was determined in a colorimetric assay using MTS [3-(4,5-dimethylthiazole-2-yl)-5-(carboxymethoxyphenyl)-2-(4-sulfophenyl)-2H-tetrazolium salt] (Promega) 20 μL of MTS was added to each well at 37° C. for 1 hour. Optical density at 490 nm was recorded using an automated microplate reader (BioTek). Background absorbance at 630 nm was subtracted from each sample reading.
# RAW264.7 cells = assay: MTS cytotoxicity assay, RAW264.7 cells; assay type: cell-based; details: various concentrations, 12 hours
# Description: as §1
# PCBP2 = target: T3, PCBP2 (Homo sapiens, UniProt Q15366); assay: Co-IP of EPRS or its fragments with PCBP2 in 293T cells; assay type: binding; details: 293T cells transfected with PCBP2 and EPRS plasmids
# T3 construct: FLAG-, Strep-, His-, or GST-tagged full-length and truncated PCBP2 were also prepared; expressed in transfected cells; host or cells: 293T
# Description: For immunoprecipitation, cell lysates were pre-cleared by incubation with protein A beads for 1 hour at 4° C. The pre-cleared cell lysates were incubated overnight at 4° C. with the respective antibodies, followed by incubation with 30 μL of protein A/G PLUS-agarose beads for 3 to 4 hours at 4° C. The immunoprecipitates were then collected and washed five times with a lysis buffer before immunoblotting analysis.
# PCBP2 KH1 (aa 11-82) = PCBP2 KH1 (aa 11-82) (Homo sapiens, UniProt Q15366); assay: In vitro pull-down of purified EPRS domains with PCBP2 KH1; details: purified His-tagged EPRS domains, GST-fused PCBP2 KH1
# Chain of PCBP2 KH1 (aa 11-82) (Q15366 11-82): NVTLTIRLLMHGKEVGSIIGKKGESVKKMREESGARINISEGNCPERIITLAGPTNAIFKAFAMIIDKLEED
# T2 sequence (Q15366 whole entry, the tested form may be a part): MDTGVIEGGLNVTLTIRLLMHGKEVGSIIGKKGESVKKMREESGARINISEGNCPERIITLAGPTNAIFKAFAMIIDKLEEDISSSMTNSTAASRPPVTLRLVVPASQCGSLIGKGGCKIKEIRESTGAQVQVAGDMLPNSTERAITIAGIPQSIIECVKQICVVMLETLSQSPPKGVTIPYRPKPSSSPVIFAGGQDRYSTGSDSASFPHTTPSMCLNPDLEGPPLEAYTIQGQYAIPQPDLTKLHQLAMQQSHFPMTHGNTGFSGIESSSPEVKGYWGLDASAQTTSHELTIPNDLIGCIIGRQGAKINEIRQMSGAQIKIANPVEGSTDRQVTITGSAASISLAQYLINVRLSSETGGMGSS
# T1 sequence (Q15366 whole entry, the tested form may be a part): as above
# T1 sequence (Q96J02 whole entry partner, the tested form may be a part): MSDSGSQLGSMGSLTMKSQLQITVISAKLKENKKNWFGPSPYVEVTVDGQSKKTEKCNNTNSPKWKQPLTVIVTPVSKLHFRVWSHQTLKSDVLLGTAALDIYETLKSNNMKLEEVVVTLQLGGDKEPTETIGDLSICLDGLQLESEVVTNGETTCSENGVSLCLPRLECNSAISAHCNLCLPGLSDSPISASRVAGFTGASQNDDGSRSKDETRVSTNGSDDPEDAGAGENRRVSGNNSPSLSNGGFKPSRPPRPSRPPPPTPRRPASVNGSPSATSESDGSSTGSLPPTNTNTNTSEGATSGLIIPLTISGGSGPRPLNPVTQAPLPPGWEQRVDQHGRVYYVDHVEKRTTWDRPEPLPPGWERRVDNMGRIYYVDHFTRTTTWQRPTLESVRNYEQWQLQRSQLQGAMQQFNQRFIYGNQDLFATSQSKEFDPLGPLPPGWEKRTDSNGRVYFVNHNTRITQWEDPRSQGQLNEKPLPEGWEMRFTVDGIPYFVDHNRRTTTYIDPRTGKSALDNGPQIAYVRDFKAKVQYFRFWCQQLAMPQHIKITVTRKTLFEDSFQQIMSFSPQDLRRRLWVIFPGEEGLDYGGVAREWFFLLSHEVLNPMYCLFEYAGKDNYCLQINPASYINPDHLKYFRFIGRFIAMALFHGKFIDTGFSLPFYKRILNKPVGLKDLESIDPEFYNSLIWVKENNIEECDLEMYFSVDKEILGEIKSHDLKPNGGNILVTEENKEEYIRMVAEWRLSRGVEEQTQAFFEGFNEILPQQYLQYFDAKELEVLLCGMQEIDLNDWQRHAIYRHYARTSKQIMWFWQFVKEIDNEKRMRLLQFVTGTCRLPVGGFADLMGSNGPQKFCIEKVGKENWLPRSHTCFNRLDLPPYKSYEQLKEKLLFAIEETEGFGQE
# T3 sequence (Q15366 whole entry, species assumed, the tested form may be a part): as the sequence (Q15366 whole entry, the tested form may be a part) above
molecule,measurement,setting,value
"EPRS: glutamyl-prolyl-tRNA synthetase protein, 1512 aa, SEQ ID NO: 63; expressed from plasmid or purified",PCBP2-mediated ubiquitination of exogenous MAVS-FLAG,MAVS [1],inhibited PCBP2-mediated ubiquitination of MAVS in a dose-dependent manner
same,endogenous ubiquitination of MAVS,MAVS [1],significantly attenuated in the presence of EPRS
same,PCBP2-induced degradation of endogenous MAVS,MAVS [2],rescued from this degradation
same,PCBP2-induced degradation of exogenous MAVS,MAVS [2],rescued from this degradation
same,binding of PCBP2 to ITCH E3 ligase,[3],did not disrupt the binding of PCBP2 to ITCH E3 ligase
same,interaction between PCBP2 and MAVS,[4],significantly reduced
YGRKKRRQRRR-GG-KWDVSTTKARVAPEKKQDVGK (YGRKKRRQRRRGGKWDVSTTKARVAPEKKQDVGK; New Tat-Epep),viral replication (fluorescence images),VSV,stronger inhibitory effect
same,VSV viral titers in mouse brains,VSV-Indiana,decrease VSV viral titers in the mouse brains
same,increase in IFN-β secretion as compared with Tat-Epep,[5],2- to 3 fold
same,increase in IL-6 secretion as compared with Tat-Epep,[5],2- to 3 fold
YGRKKRRQRRRGGDVSTTKARVAPEKKQDVGKFVELPGAEMG [Tat-Epep],viability of 293T cells,293T cells,no effect on the viability
same,viability of RAW264.7 cells,RAW264.7 cells,no effect on the viability
B1,interaction with PCBP2 (co-IP),PCBP2,crucial for the interaction with PCBP2
same,direct interaction with PCBP2 KH1 (in vitro precipitation),PCBP2 KH1 (aa 11-82),specifically interacted
